biological target: DYRK1A (Homo sapiens, UniProt Q13627); assay: not given; details: non-ATP competitive DYRK1A inhibitor; Bain, J., et al., Biochem J 408 (2007); cited from earlier work

| Structure (SMILES) | IC50 [µM] |
| --- | --- |
| O=C(O[C@@H]1Cc2c(O)cc(O)cc2O[C@@H]1c1cc(O)c(O)c(O)c1)c1cc(O)c(O)c(O)c1 [EGCG, Epigallocatechin gallate] | 0.33 |

test system: DS patients; assay: not given; details: randomized, double-blinded placebo-controlled study, De la Torre et al. 2014; cited from earlier work

| Structure (SMILES) | memory recognition, working memory and quality of life |
| --- | --- |
| O=C(O[C@@H]1Cc2c(O)cc(O)cc2O[C@@H]1c1cc(O)c(O)c(O)c1)c1cc(O)c(O)c(O)c1 [EGCG, Epigallocatechin gallate] | improved memory recognition, working memory and quality of life |

biological target: T1, DYRK1A (Rattus norvegicus, UniProt Q63470); assay: DYRK1A ELISA non-radioactive kinase assay; type: biochemical; details: HT-PRD substrate, 100 μM ATP, 30 min at 30° C.
T1 construct: 6x histidine tag (HT)
Description: Decant HT-PRD solution, wash the wells twice with Tris dilution buffer. Block each well with 150 μl BSA/PBST blocking buffer PBST (2% BSA in PBS with 0.25% Tween 20) for at least 1 hr at room temperature.
Decant the blocking solution and wash the wells 3-4 times with Tris dilution buffer. Perform DYRK1A phosphorylation in the well with 100 μl reaction buffer (25 mM HEPES, pH 7.4, 100 mM NaCl, 5 mM MgCl2, and 100 μM ATP) containing DYRK1A (eg. 5-10 ng purified HT-DYRK1A) and inhibitor, if necessary, for 30 min at 30° C. […] Use 80 μl of this mixture in the reaction will give final ATP concentration of 100 μM. ATP concentrations may be adjusted if necessary. • 2. Add 10 μl inhibitor. If the inhibitor is dissolved in DMSO, shake the plate gently for 1 min before adding kinase. • 3. Dilute DYRK1A in Tris dilution buffer to a concentration of 0.5 ng/l (prepare fresh every time). • 4. Initiate phosphorylation by adding 10 l DYRK1A to each well.
Decant the phosphorylation solution and wash the wells three times with PBST. Add 100 μl diluted antibody 3D3 (eg. 2˜3K dilution of 1.5 mg/ml stock in BSA blocking buffer) and incubate for 1 hr at room temperature.
Decant the primary antibody solution and wash the wells three times with PBST. Add 100 μl diluted AP-conjugated anti-mouse IgG (5K dilution of anti-mouse IgG-AP in BSA blocking buffer) and incubate for 1 hr at room temperature.
Color Development and Detection.
Decant the secondary antibody and wash the wells extensively (3-4 times) with AP buffer (10 mM Tris-HCl, pH 9.5, 10 mM NaCl, and 5 mM MgCl2). Add 100 μl p-nitrophenyl phosphate solution (1 mg/ml in AP buffer or 1 PNPP tablet per 5 ml 1× diethanolamine substrate buffer) and incubate the plate at 30° C. Yellow color should start appearing in a few minutes. OD at 405 nm usually can be read between 10-30 min.

| Structure (SMILES) | IC50 [µM] |
| --- | --- |
| Oc1cc(O)c2c(c1)O[C@H](c1cc(O)c(O)c(O)c1)[C@H](O)C2 [(2R,3R)-2-(3,4,5-trihydroxyphenyl)chroman-3,5,7-triol] | > 100 |
| O=C(O[C@@H]1Cc2c(O)cc(O)cc2O[C@@H]1c1ccc(O)c(O)c1)c1cc(O)c(O)c(O)c1 [(2R,3R)-2-(3,4-dihydroxyphenyl)-5,7-dihydroxychroman-3-yl 3,4,5-trihydroxybenzoate] | 0.52 |
| Oc1cc(O)c2c(c1)O[C@H](c1ccc(O)c(O)c1)[C@H](O)C2 [(2R,3R)-2-(3,4-dihydroxyphenyl)chroman-3,5,7-triol] | > 100 |
| COc1c(O)cc([C@H]2Oc3cc(O)cc(O)c3C[C@H]2OC(=O)c2cc(O)c(O)c(O)c2)cc1O [(2R,3R)-2-(3,5-dihydroxy-4-methoxyphenyl)-5,7-dihydroxychroman-3-yl 3,4,5-trihydroxybenzoate] | 5.8 |
| COc1c(O)cc(C(=O)O[C@@H]2Cc3c(O)cc(O)cc3O[C@@H]2c2cc(O)c(O)c(O)c2)cc1O [(2R,3R)-5,7-dihydroxy-2-(3,4,5-trihydroxyphenyl)chroman-3-yl 3,5-dihydroxy-4-methoxybenzoate] | 25.1 |
| Oc1cc(O)c2c(c1)O[C@@H](c1cc(O)c(O)c(O)c1)[C@H](O)C2 [(2S,3R)-2-(3,4,5-trihydroxyphenyl)chroman-3,5,7-triol] | > 100 |
| O=C(O[C@@H]1Cc2c(O)cc(O)cc2O[C@H]1c1ccc(O)c(O)c1)c1cc(O)c(O)c(O)c1 [(2S,3R)-2-(3,4-dihydroxyphenyl)-5,7-dihydroxychroman-3-yl 3,4,5-trihydroxybenzoate] | 0.18 |
| Oc1cc(O)c2c(c1)O[C@@H](c1ccc(O)c(O)c1)[C@H](O)C2 [(2S,3R)-2-(3,4-dihydroxyphenyl)chroman-3,5,7-triol] | > 100 |

Source: patent publication US20180243260A1, “METHODS OF TREATING COGNITIVE AND BEHAVIORAL IMPAIRMENT IN DOWN SYNDROME AND ALZHEIMERS DISEASE PATIENTS” (AVANTI BIOSCIENCES INC., priority 2016, published 2018)
